Test system: glycogen synthase
Test: Glycogen Synthase (GS) Assay
Format: biochemical
Conditions: coupled pyruvate kinase/lactate dehydrogenase assay, absorbance at 340 nm; for EC50: compound concentration needed to give 50% maximum activation; for GS SC200: compound concentration needed to stimulate 200% of the enzyme activity
Method: The following tests were carried out in order to determine the activity of the compounds of formula (I).
Twelve μL per well of substrate solution containing glycogen (4.32 mg/ml), 2.67 mM UDP-glucose, 21.6 mM phospho(enol)pyruvate and 2.7 mM NADH in 30 mM glycylglycine, pH 7.3 buffer was added into a polystyrene 384-well assay plate (BD Biosciences).
Compound solutions (8 μL/well) at various concentrations (0-300 μM) were added to the assay plate (columns 5-24). Compound solution contains 30 mM glycylglycine, pH 7.3, 40 mM KCl, 20 mM MgCl2, 9.2% DMSO, with (columns 15-24) or without (columns 5-14) 20 mM glucose 6-phosphate.
Enzyme solution (12 μL/well) containing glycogen synthase (16.88 μg/ml), pyruvate kinase (0.27 mg/ml), lactate dehydrogenase (0.27 mg/ml) in 50 mM Tris-HCl, pH 8.0, 27 mM DTT and bovine serum albumin (BSA, 0.2 mg/ml) was added to the assay plate (columns 3-24). As a blank control, enzyme solution without glycogen synthase was added into the top half wells of columns 1-2. To the bottom half wells of columns 1-2 were added a known activator, glucose 6-phosphate (at final concentration 5 mM) in addition to the enzyme solution. The reaction mixture was incubated at room temperature. The assay plate was then read for absorbance at 340 nm on an Envision reader every 3 minutes up to a total of 15 minutes.
The enzyme activity (with or without compound) was calculated by the reaction rate and represented by the optical density change (δOD) per minute. Percent stimulation of glycogen synthase activity by a compound at various concentrations was calculated by the following formula: […]
Where Rs is the reaction rate of the enzyme in the presence of compound and Rt is the reaction rate of the enzyme in the absence of compound.
SC200 is defined as the compound concentration that is needed to stimulate 200% of the enzyme activity. EC50 is defined as the compound concentration that is needed to give 50% maximum activation.
Compounds from Examples 1 through Example 64 were assayed according to assay procedures described above and the result is listed in Table 1 below: […]

Row | EC50 [nM] | Compound | GS SC200 [µM]
1 | 16600 | O=C(O)[C@H]1CCS(=O)(=O)N1Cc1csc(COc2ccc(-c3cc(F)c(F)cc3F)cc2)n1 [Example 59, (R)-1,1-Dioxo-2-[2-(2′,4′,5′-trifluoro-biphenyl-4-yloxymethyl)-thiazol-4-ylmethyl]-1lambda*V-isothiazolidine-3-carboxylic acid] | 6.06
2 | 2190 | O=C(O)[C@@H]1CCS(=O)(=O)N1Cc1csc(COc2ccc(-c3cc(F)c(F)cc3F)cc2)n1 [Example 60, (S)-1,1-Dioxo-2-[2-(2′,4′,5′-trifluoro-biphenyl-4-yloxymethyl)-thiazol-4-ylmethyl]-1lambda*6*-isothiazolidine-3-carboxylic acid] | 1.74
3 | 1170 | COc1cc(F)c(F)cc1-c1ccc(OCc2nc(CN3[C@@H](C(=O)O)CCS3(=O)=O)cs2)cc1 [Example 61, (R)-2-[2-(4′,5′-Difluoro-2′-methoxy-biphenyl-4-yloxymethyl)-thiazol-4-ylmethyl]-1,1-dioxo-1lambda*6*-isothiazolidine-3-carboxylic acid] | 0.78
4 | 430 | COc1cc(F)c(F)cc1-c1ccc(OCc2nc(CN3[C@H](C(=O)O)CCS3(=O)=O)cs2)cc1 [Example 62, (S)-2-[2-(4′,5′-Difluoro-2′-methoxy-biphenyl-4-yloxymethyl)-thiazol-4-ylmethyl]-1,1-dioxo-1lambda*6*-isothiazolidine-3-carboxylic acid] | 0.26

Second part, the molecule before the results:

Row | Compound | EC50 [nM] | GS SC200 [µM]
5 | O=C(O)C(F)(F)F.O=C(O)[C@@H]1CCCN1Cc1cccc(COc2ccc(-c3ccc(F)cc3F)cc2)c1 [Example 54, (S)-1-[3-(2′,4′-Difluoro-biphenyl-4-yloxymethyl)-benzyl]-pyrrolidine-2-carboxylic acid; trifluoro-acetic acid salt] | 3710 | 0.90
6 | COc1cc(F)c(F)cc1-c1ccc(OCc2cccc(CN3[C@@H](C(=O)O)CCCS3(=O)=O)c2)cc1 [Example 55, (R)-2-[3-(4′,5′-Difluoro-2′-methoxy-biphenyl-4-yloxymethyl)-benzyl]-1,1-dioxo-1lambda*6*-[1,2]thiazinane-3-carboxylic acid] | 330 | 0.16
7 | COc1cc(F)c(F)cc1-c1ccc(OCc2cccc(CN3[C@H](C(=O)O)CCCS3(=O)=O)c2)cc1 [Example 56, (S)-2-[3-(4′,5′-Difluoro-2′-methoxy-biphenyl-4-yloxymethyl)-benzyl]-1,1-dioxo-1lambda*6*-[1,2]thiazinane-3-carboxylic acid] | 110 | 0.04
8 | O=C(O)[C@H]1CCCS(=O)(=O)N1Cc1cccc(COc2ccc(-c3cc(F)c(F)cc3F)cc2)c1 [Example 57, (R)-1,1-Dioxo-2-[3-(2′,4′,5′-trifluoro-biphenyl-4-yloxymethyl)-benzyl]-1lambda*6*-[1,2]thiazinane-3-carboxylic acid] | 2340 | 1.22
9 | O=C(O)[C@@H]1CCCS(=O)(=O)N1Cc1cccc(COc2ccc(-c3cc(F)c(F)cc3F)cc2)c1 [Example 58, (S)-1,1-Dioxo-2-[3-(2′,4′,5′-trifluoro-biphenyl-4-yloxymethyl)-benzyl]-1lambda*6*-[1,2]thiazinane-3-carboxylic acid] | 60 | 0.04
10 | COc1cc(F)c(F)cc1-c1ccc(OCc2cncc(CN3C(C(=O)O)CCS3(=O)=O)c2)cc1 (centres unmarked) [Example 63, 2-[5-(4′,5′-Difluoro-2′-methoxy-biphenyl-4-yloxymethyl)-pyridin-3-ylmethyl]-1,1-dioxo-1lambda*6*-isothiazolidine-3-carboxylic acid] | 550 | 0.01
